Reference: ChEMBL document CHEMBL4507288 (2021)
The source made the active and inactive calls.

Assays:
[1] = biological target: NUAK family SNF1-like kinase 1 (Homo sapiens) (UniProt O60285); conditions: Compound concentration 1000.0 nM
[2] = biological target: Receptor tyrosine-protein kinase erbB-2 (Homo sapiens) (UniProt P04626); conditions: Compound concentration 1000.0 nM
[3] = biological target: Serine/threonine-protein kinase 32C (Homo sapiens) (UniProt Q86UX6); conditions: Compound concentration 1000.0 nM
[4] = biological target: Cyclin-dependent kinase 15 (Homo sapiens) (UniProt Q96Q40); conditions: Compound concentration 1000.0 nM
Sequence of Cyclin-dependent kinase 15 (Homo sapiens) (Q96Q40 whole entry): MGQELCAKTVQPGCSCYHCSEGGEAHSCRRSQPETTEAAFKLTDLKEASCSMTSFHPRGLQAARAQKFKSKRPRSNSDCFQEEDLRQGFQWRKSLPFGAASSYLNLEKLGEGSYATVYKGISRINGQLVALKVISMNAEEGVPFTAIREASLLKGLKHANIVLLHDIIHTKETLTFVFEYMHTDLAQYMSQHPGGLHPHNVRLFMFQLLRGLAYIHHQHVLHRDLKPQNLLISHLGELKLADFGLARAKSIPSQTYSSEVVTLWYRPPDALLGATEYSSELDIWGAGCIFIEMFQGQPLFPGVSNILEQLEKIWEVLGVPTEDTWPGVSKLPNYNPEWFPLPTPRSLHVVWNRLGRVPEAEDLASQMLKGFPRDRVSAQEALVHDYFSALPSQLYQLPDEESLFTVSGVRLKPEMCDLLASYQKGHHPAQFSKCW

[5] = biological target: Calcium/calmodulin-dependent protein kinase type II subunit beta (Homo sapiens) (UniProt Q13554); conditions: Compound concentration 1000.0 nM
[6] = biological target: Calcium/calmodulin-dependent protein kinase type 1D (Homo sapiens) (UniProt Q8IU85); conditions: Compound concentration 1000.0 nM
[7] = test system: Phosphatidylinositol 4,5-bisphosphate 3-kinase catalytic subunit alpha isoform (Homo sapiens), P42336 [E542K]; conditions: Compound concentration 1000.0 nM
[8] = biological target: Tyrosine-protein kinase HCK (Homo sapiens) (UniProt P08631); conditions: Compound concentration 1000.0 nM
[9] = biological target: Casein kinase II subunit alpha (Homo sapiens) (UniProt P68400); conditions: Compound concentration 1000.0 nM
[10] = biological target: Misshapen-like kinase 1 (Homo sapiens) (UniProt Q8N4C8); conditions: Compound concentration 1000.0 nM
[11] = biological target: Serine/threonine-protein kinase DCLK3 (Homo sapiens) (UniProt Q9C098); conditions: Compound concentration 1000.0 nM
[12] = biological target: AP2-associated protein kinase 1 (Homo sapiens) (UniProt Q2M2I8); conditions: Compound concentration 1000.0 nM
Sequence of AP2-associated protein kinase 1 (Homo sapiens) (Q2M2I8 whole entry, looked up): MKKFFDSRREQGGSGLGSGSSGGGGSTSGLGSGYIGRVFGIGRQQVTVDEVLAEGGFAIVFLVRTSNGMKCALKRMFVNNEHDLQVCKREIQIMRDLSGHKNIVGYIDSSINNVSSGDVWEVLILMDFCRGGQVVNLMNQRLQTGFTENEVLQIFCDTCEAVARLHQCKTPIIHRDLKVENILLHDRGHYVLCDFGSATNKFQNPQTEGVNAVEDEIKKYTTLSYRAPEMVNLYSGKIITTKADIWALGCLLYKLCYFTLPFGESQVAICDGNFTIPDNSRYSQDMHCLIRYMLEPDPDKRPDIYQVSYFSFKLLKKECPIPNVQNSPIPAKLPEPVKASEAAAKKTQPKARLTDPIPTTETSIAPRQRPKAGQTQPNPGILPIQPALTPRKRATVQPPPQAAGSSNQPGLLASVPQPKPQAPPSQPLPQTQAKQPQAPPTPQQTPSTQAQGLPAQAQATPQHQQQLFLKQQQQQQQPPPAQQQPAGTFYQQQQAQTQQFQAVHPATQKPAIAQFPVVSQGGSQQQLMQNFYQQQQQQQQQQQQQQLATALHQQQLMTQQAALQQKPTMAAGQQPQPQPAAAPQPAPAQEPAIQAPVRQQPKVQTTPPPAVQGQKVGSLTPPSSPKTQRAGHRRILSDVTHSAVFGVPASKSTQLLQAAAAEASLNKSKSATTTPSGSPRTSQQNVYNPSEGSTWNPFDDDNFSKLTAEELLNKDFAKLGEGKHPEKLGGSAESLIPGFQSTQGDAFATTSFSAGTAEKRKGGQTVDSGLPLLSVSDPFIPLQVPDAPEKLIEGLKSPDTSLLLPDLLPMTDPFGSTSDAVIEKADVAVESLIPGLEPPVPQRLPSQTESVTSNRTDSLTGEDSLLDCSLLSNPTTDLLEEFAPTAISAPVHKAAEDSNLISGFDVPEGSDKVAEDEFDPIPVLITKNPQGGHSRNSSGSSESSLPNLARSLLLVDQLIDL

[13] = biological target: Activin receptor type-2A (Homo sapiens) (UniProt P27037); conditions: Compound concentration 1000.0 nM
[14] = biological target: Serine/threonine-protein kinase 32A (Homo sapiens) (UniProt Q8WU08); conditions: Compound concentration 1000.0 nM
[15] = biological target: Homeodomain-interacting protein kinase 2 (Homo sapiens) (UniProt Q9H2X6); conditions: Compound concentration 1000.0 nM
[16] = biological target: Serine/threonine-protein kinase 33 (Homo sapiens) (UniProt Q9BYT3); conditions: Compound concentration 1000.0 nM
[17] = biological target: Serine/threonine-protein kinase Chk1 (Homo sapiens) (UniProt O14757); conditions: Compound concentration 1000.0 nM
[18] = biological target: Mitogen-activated protein kinase 8 (Homo sapiens) (UniProt P45983); conditions: Compound concentration 1000.0 nM
[19] = biological target: Mitogen-activated protein kinase kinase kinase kinase 5 (Homo sapiens) (UniProt Q9Y4K4); conditions: Compound concentration 1000.0 nM
Sequence of Mitogen-activated protein kinase kinase kinase kinase 5 (Homo sapiens) (Q9Y4K4 whole entry, looked up): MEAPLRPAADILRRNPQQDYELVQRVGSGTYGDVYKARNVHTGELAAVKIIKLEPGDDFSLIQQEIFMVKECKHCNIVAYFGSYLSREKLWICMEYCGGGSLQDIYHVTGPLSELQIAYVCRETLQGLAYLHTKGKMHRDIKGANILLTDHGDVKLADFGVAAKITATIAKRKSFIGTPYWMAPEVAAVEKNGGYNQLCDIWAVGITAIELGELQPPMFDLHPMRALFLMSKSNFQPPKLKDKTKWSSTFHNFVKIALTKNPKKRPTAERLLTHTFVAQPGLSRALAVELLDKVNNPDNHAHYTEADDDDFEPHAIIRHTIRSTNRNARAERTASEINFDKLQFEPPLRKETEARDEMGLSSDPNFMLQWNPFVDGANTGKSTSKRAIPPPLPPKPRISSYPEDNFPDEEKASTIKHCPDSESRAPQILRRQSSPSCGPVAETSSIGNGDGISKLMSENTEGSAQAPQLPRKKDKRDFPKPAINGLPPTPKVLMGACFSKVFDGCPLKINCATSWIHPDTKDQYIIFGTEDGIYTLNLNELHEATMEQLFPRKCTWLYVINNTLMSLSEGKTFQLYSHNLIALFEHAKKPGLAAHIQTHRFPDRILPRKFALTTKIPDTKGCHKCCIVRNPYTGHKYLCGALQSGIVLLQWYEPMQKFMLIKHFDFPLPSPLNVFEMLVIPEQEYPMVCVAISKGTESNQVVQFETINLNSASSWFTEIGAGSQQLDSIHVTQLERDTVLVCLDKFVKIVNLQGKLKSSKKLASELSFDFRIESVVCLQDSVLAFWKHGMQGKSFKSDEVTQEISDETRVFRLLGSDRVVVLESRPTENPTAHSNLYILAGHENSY

[20] = biological target: Beta-2 adrenergic receptor (Homo sapiens) (UniProt P07550); conditions: Compound concentration 10.0 uM
[21] = biological target: Ephrin type-A receptor 4 (Homo sapiens) (UniProt P54764); conditions: Compound concentration 1000.0 nM
[22] = biological target: Serine/threonine-protein kinase OSR1 (Homo sapiens) (UniProt O95747); conditions: Compound concentration 1000.0 nM
[23] = biological target: Serine/threonine-protein kinase 17A (Homo sapiens) (UniProt Q9UEE5); conditions: Compound concentration 1000.0 nM
[24] = biological target: Calcium/calmodulin-dependent protein kinase type 1B (Homo sapiens) (UniProt Q6P2M8); conditions: Compound concentration 1000.0 nM
[25] = biological target: Phosphatidylinositol 4-phosphate 5-kinase type-1 gamma (Homo sapiens) (UniProt O60331); conditions: Compound concentration 1000.0 nM
[26] = biological target: Phosphatidylinositol 5-phosphate 4-kinase type-2 gamma (Homo sapiens) (UniProt Q8TBX8); conditions: Compound concentration 1000.0 nM
Sequence of Phosphatidylinositol 5-phosphate 4-kinase type-2 gamma (Homo sapiens) (Q8TBX8 whole entry): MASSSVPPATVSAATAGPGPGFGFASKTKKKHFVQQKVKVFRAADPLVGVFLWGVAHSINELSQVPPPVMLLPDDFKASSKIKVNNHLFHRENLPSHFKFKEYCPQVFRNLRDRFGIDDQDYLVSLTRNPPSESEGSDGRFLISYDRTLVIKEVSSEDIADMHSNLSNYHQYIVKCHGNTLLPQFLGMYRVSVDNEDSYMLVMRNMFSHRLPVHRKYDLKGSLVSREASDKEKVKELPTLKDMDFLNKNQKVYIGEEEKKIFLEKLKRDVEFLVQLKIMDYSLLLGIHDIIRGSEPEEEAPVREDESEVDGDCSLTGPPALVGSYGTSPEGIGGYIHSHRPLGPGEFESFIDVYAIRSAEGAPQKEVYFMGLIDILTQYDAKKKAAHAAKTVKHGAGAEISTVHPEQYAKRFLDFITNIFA

[27] = biological target: Ribosomal protein S6 kinase alpha-2 (Homo sapiens) (UniProt Q15349); conditions: Compound concentration 1000.0 nM
Sequence of Ribosomal protein S6 kinase alpha-2 (Homo sapiens) (Q15349 whole entry): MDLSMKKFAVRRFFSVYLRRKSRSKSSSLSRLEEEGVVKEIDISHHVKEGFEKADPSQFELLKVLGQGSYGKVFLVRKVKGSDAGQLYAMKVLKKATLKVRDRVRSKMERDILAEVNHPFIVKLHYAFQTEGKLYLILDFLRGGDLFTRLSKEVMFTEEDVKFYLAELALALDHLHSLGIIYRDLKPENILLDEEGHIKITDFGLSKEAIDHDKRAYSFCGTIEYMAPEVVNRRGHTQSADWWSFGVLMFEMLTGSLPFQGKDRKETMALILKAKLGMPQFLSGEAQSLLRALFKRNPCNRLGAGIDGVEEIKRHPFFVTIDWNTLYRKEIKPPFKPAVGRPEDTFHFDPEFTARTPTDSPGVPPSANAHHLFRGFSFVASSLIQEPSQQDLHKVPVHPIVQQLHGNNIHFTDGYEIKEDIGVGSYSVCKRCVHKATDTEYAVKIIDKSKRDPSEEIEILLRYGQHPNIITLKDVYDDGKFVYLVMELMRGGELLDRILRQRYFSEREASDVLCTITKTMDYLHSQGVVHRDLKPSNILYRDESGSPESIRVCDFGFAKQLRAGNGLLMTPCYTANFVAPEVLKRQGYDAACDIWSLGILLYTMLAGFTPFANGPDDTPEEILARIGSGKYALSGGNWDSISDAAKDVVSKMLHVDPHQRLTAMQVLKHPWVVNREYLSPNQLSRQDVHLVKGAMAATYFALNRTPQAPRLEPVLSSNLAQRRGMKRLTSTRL

[28] = biological target: Amyloid-beta precursor protein (Homo sapiens, UniProt P05067); experiment: Aβ42 inhibition assay
[29] = biological target: Tyrosine-protein kinase ABL1 (Homo sapiens) (UniProt P00519); conditions: Compound concentration 1000.0 nM
[30] = biological target: Mitogen-activated protein kinase kinase kinase 12 (Homo sapiens) (UniProt Q12852); conditions: Compound concentration 1000.0 nM
[31] = test system: Phosphatidylinositol 4,5-bisphosphate 3-kinase catalytic subunit alpha isoform (Homo sapiens), P42336 [M1043I]; conditions: Compound concentration 1000.0 nM
[32] = biological target: Fibroblast growth factor receptor 3 (Homo sapiens) (UniProt P22607); conditions: Compound concentration 1000.0 nM
[33] = biological target: Focal adhesion kinase 1 (Homo sapiens) (UniProt Q05397); conditions: Compound concentration 1000.0 nM
[34] = biological target: Ribosomal protein S6 kinase alpha-2 (Homo sapiens) (UniProt Q15349); conditions: Compound concentration 1000.0 nM; remark: listed apart in the source
[35] = biological target: Ephrin type-A receptor 3 (Homo sapiens) (UniProt P29320); conditions: Compound concentration 1000.0 nM
[36] = biological target: cAMP-dependent protein kinase catalytic subunit PRKX (Homo sapiens) (UniProt P51817); conditions: Compound concentration 1000.0 nM
[37] = biological target: Dual specificity mitogen-activated protein kinase kinase 4 (Homo sapiens) (UniProt P45985); conditions: Compound concentration 1000.0 nM
[38] = biological target: Cyclin-dependent kinase 4 (Homo sapiens) (UniProt P11802); conditions: Compound concentration 1000.0 nM
[39] = biological target: Fibroblast growth factor receptor 4 (Homo sapiens) (UniProt P22455); conditions: Compound concentration 1000.0 nM
[40] = biological target: Insulin-like growth factor 1 receptor (Homo sapiens) (UniProt P08069); conditions: Compound concentration 1000.0 nM
[41] = biological target: Epithelial discoidin domain-containing receptor 1 (Homo sapiens) (UniProt Q08345); conditions: Compound concentration 1000.0 nM
Sequence of Epithelial discoidin domain-containing receptor 1 (Homo sapiens) (Q08345 whole entry, the tested form may be a part): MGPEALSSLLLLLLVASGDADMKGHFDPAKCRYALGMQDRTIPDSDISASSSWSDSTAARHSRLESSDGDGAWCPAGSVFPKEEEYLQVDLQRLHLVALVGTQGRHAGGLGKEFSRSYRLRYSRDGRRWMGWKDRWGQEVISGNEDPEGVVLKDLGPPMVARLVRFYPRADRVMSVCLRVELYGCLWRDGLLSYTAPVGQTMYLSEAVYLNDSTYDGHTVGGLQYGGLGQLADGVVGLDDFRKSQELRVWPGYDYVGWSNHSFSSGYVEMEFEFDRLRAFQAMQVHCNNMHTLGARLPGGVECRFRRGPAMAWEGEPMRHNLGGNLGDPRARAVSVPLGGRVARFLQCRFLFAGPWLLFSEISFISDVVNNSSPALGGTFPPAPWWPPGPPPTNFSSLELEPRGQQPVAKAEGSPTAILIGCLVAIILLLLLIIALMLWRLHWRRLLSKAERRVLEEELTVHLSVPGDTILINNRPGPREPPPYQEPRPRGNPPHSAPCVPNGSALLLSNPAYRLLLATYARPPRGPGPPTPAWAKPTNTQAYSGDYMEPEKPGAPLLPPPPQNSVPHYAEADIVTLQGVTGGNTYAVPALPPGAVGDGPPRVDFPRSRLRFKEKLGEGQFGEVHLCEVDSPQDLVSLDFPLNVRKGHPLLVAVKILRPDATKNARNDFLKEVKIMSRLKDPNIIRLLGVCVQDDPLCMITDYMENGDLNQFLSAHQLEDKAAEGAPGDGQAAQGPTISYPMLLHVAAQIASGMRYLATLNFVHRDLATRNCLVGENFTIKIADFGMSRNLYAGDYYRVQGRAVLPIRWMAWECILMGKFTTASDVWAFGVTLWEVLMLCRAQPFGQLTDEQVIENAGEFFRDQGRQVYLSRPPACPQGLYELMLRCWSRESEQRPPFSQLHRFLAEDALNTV

[42] = biological target: 3-phosphoinositide-dependent protein kinase 1 (Homo sapiens) (UniProt O15530); conditions: Compound concentration 1000.0 nM
[43] = biological target: Tyrosine-protein kinase receptor UFO (Homo sapiens) (UniProt P30530); conditions: Compound concentration 1000.0 nM
[44] = biological target: Serine/threonine-protein kinase mTOR (Homo sapiens) (UniProt P42345); conditions: Compound concentration 1000.0 nM
[45] = biological target: Cytoplasmic tyrosine-protein kinase BMX (Homo sapiens) (UniProt P51813); conditions: Compound concentration 1000.0 nM
Sequence of Cytoplasmic tyrosine-protein kinase BMX (Homo sapiens) (P51813 whole entry): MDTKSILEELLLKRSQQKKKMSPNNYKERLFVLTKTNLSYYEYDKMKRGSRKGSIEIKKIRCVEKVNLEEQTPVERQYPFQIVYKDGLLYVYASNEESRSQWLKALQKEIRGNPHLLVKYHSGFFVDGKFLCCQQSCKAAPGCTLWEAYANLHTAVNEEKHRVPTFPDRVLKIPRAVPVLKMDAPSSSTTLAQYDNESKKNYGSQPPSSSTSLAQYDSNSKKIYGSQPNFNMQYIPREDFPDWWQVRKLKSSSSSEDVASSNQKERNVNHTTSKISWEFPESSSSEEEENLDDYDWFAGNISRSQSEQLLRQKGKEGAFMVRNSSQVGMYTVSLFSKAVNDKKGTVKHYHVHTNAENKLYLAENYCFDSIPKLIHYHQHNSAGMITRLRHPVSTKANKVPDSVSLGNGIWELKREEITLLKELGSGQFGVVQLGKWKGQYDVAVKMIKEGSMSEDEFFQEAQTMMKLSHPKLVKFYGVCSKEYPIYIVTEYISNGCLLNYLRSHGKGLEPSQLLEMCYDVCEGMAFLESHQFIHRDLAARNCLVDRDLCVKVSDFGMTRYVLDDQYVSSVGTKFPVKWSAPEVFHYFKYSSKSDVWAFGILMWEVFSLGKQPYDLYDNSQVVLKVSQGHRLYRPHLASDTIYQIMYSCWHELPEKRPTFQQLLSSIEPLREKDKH

O=S(=O)(NC1CCC(c2cc(F)ccc2F)(S(=O)(=O)c2ccc(Cl)cc2)CC1)C(F)(F)F (stereo not given) [MRK-560]
inactive: residual activity [1] 83% | residual activity [2] 91% | residual activity [3] 100% | residual activity [4] 100% | residual activity [5] 97% | residual activity [6] 79% | residual activity [7] 100% | residual activity [8] 85% | residual activity [9] 85% | residual activity [10] 100% | residual activity [11] 100% | residual activity [12] 96% | residual activity [13] 63% | residual activity [14] 97% | residual activity [15] 81% | residual activity [16] 76% | residual activity [17] 100% | residual activity [18] 78% | residual activity [19] 69% | inhibition [20] 9.91% | residual activity [21] 95% | residual activity [22] 91% | residual activity [23] 86% | residual activity [24] 100% | residual activity [25] 87% | residual activity [26] 100% | residual activity [27] 95% | residual activity [29] 87% | residual activity [30] 100% | residual activity [31] 100% | residual activity [32] 90% | residual activity [33] 90% | residual activity [34] 100% | residual activity [35] 100% | residual activity [36] 100% | residual activity [37] 76% | residual activity [38] 91% | residual activity [39] 100% | residual activity [40] 100% | residual activity [41] 100% | residual activity [42] 100% | residual activity [43] 100% | residual activity [44] 94% | residual activity [45] 93%
active: IC50 [28] < 0.5 nM
